Results published in paper PMC11969031, “The homeostasis of β‐alanine is key for Arabidopsis reproductive growth and development” (The Plant Journal, 2025).

How the values were obtained:
[1] = molecular target: T1, Col-0-PYD4 (AT3G08860, recombinant) (Arabidopsis thaliana, UniProt Q9SR86); test: coupled NADH assay at […] nm (pyruvate or alanine dehydrogenase); assay type: biochemical; conditions: 50 mM Tris pH 8.0, 30°C
T1 construct: first 31 residues (signal peptide) removed; codon-optimised synthetic gene, pET24a, C-terminal His6; E. coli BL21(DE3); Ni-NTA
T1 sequence (Q9SR86 32-481): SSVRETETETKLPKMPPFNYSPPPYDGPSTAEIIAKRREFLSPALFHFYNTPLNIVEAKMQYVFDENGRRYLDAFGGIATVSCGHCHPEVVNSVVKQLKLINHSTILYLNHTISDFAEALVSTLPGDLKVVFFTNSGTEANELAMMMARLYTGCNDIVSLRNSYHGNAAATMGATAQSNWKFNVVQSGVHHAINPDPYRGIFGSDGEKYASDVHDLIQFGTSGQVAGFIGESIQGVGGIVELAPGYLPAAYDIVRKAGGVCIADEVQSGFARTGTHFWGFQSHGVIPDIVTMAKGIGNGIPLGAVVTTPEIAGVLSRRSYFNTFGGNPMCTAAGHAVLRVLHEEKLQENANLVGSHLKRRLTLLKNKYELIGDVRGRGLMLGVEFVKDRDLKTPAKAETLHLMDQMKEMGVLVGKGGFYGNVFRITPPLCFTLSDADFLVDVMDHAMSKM

[2] = molecular target: T2, AGT2_weak (AT4G39660, recombinant) (Arabidopsis thaliana, UniProt Q940M2); test: coupled NADH assay at […] nm (pyruvate dehydrogenase); assay type: biochemical; conditions: amino donor; 50 μM glyoxylate/2-oxoglutarate/pyruvate, 3 μM enzyme, 50 mM Tris pH 8.0, 30°C; degradation direction only
T2 construct: gene AGT2; first 29 residues (signal peptide) of 476 removed; codon-optimised synthetic gene, pET24a, C-terminal His6; E. coli BL21(DE3); Ni-NTA
T2 sequence (Q940M2 30-476): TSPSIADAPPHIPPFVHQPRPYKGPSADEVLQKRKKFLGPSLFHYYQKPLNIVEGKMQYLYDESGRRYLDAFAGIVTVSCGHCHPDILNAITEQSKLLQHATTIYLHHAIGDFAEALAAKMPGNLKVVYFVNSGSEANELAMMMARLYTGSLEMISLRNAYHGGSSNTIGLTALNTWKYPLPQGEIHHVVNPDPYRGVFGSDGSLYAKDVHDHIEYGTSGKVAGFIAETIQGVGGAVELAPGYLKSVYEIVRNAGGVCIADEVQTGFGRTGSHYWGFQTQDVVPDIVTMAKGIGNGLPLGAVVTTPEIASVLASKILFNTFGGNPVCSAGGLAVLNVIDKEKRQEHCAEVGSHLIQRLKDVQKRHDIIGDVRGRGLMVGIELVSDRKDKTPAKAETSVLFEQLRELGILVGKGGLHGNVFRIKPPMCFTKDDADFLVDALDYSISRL

Structure (SMILES) | coupled NADH assay at 340 nm (pyruvate or alanine dehydrogenase) ([1]; amino donor, acceptor not given) | coupled NADH assay at 340 nm (pyruvate dehydrogenase) [2] | coupled NADH assay at 340 nm (pyruvate or alanine dehydrogenase) ([1]; amino donor (positive control enzyme; works in both directions))
NCCC(=O)O [β‐alanine] | PYD4 was also able to use β‐alanine as an amino donor |  | 
C[C@H](N)C(=O)O [L‐alanine] |  | We also detected activity when L‐alanine was used as the amino donor | activity when L‐alanine was used as the amino donor, but unlike PYD4, AGT2 only functions
